# pIC50: −log10 of the molar value. Active and inactive are the calls of the source. The rule behind the calls is not given here.
# Test system: RAW264.7
# Experiment: Inhibition of iNOS mRNA expression in mouse RAW264.7 cells […] by RT-PCR analysis
# Format: functional, cell-based
row,Structure (SMILES),Activity
1,Oc1cc2cc(c1O)Oc1ccc(cc1)CCc1cccc(O)c1Oc1cccc(c1)CC2 [MARCHANTIN A],inactive

# Test system: RAW264.7
# Experiment: Inhibition of LPS-induced nitric oxide production in mouse RAW264.7 cells pretreated 1 hr before LPS challenge after 24 hrs by Griess reagent method
# Format: functional, cell-based
row,Structure (SMILES),pIC50
1,COc1cccc(CCc2ccc(O)c(Oc3ccc(CCc4cccc(O)c4)cc3)c2)c1,4.30
2,Oc1ccc2cc1Oc1ccc(cc1)CCc1cccc(c1)Oc1c(O)cccc1CC2 [ISOMARCHANTIN C],< 4.00
3,Oc1ccc2c(c1)CCc1ccc(O)c(c1)-c1cc(ccc1O)/C=C\c1cccc(c1)O2 [ISOPLAGIOCHIN A],< 4.00
4,Oc1ccc2cc1-c1cc(ccc1O)CCc1c(ccc(O)c1O)Oc1cccc(c1)/C=C\2 [ISOPLAGIOCHIN B],< 4.00
5,Oc1ccc2c(c1)CCc1ccc(O)c(c1)-c1cc(ccc1O)CCc1ccc-2c(O)c1 [ISOPLAGIOCHIN D],4.84
6,COc1cccc2c1Oc1cccc(c1)CCc1cc(OC)c(OC)c(c1)Oc1ccc(cc1)CC2 [MARCHANTIN A TRIMETHYL ETHER],4.37
7,Oc1cc2cc(c1O)Oc1ccc(cc1)CCc1cccc(O)c1Oc1cccc(c1)CC2 [MARCHANTIN A],5.84
8,COc1cc2cc(c1OC)Oc1ccc(cc1)CCc1ccc(OC)c(OC)c1Oc1cccc(c1)CC2 [MARCHANTIN B TETRAMETHYL ETHER],4.37
9,Oc1cc2cc(c1O)Oc1ccc(cc1)CCc1ccc(O)c(O)c1Oc1cccc(c1)CC2 [MARCHANTIN B],5.39
10,Oc1ccc2cc1Oc1cccc(c1)CC(O)c1cc(O)c(O)c(c1)Oc1ccc(cc1)CC2 (stereo not given) [MARCHANTIN D],4.99
11,COC1Cc2cccc(c2)Oc2c(O)cccc2CCc2ccc(cc2)Oc2cc1cc(O)c2O (stereo not given) [MARCHANTIN E],4.21
12,Oc1ccc2cc1Oc1ccc(cc1)CCc1cc(O)c(O)c(c1)Oc1cccc(c1)CC2 [MARCHANTIN H],4.81
13,Oc1cccc(CCc2ccc(Oc3cc(CCc4cccc(O)c4)cc(O)c3O)cc2)c1 [PERROTETTIN F],5.13
14,COc1cc2c(cc1O)-c1ccc(O)cc1CCc1cc(O)c(O)c(c1)Oc1ccc(cc1)CC2 [PLAGIOCHIN A],5.04
15,Oc1ccc2c(c1)/C=C/c1ccc(O)c(c1)Oc1ccc(cc1)CCc1cccc(c1)O2 [PTYCHANTOL A],< 4.00
16,Oc1ccc2c(c1)CCc1ccc(cc1)Oc1cc(ccc1O)CCc1ccc-2c(O)c1 [RICCARDI C],< 4.00
17,COc1ccc2cc1Oc1ccc(cc1)CCc1cc(O)ccc1-c1ccc(cc1O)CC2 [RICCARDI F],5.30
18,COc1ccc2c(c1)CCc1ccc(cc1)Oc1cc(ccc1O)CCc1ccc-2c(O)c1 [RICCARDIN A],5.60

# Test system: RAW264.7
# Experiment: Inhibition of LPS-induced iNOS mRNA expression in mouse RAW264.7 cells […] by RT-PCR analysis
# Format: functional, cell-based
row,Structure (SMILES),Activity
1,Oc1cc2cc(c1O)Oc1ccc(cc1)CCc1cccc(O)c1Oc1cccc(c1)CC2 [MARCHANTIN A],Dose-dependent effect

# From ChEMBL document CHEMBL1151283, “Bis(bibenzyls) from liverworts inhibit lipopolysaccharide-induced inducible NOS in RAW 264.7 cells: a study of structure-activity relationships and molecular mechanism” (J Nat Prod, 2005)
